This is an account of results in PMC9375521 (Protein Science : A Publication of the Protein Society, 2022).

The target of this test is SARS‐CoV‐2 nsp10–nsp16 complex (Severe acute respiratory syndrome coronavirus 2, UniProt P0DTD1). Description: nsp10–nsp16 radiometric MTase assay, IC50 determination. Format: biochemical.

By IC50 is commonly meant the concentration that gives 50% inhibition. High values mean a need for much substance, low ones inhibition by little substance. One may read the Hill slope as a measure of the steepness of the concentration-response curve. `Nc1ncnc2c1ncn2[C@@H]1O[C@H](CSCC[C@H](N)C(=O)O)[C@@H](O)[C@H]1O` [SAH, S‐adenosylhomocysteine] displayed an IC50 of 2.2 ± 0.2 µM. For the same molecule, for the setting “radiometric assay, mean ± SD, N = 3”, the Hill slope stood at 0.6 ± 0.1.
